Laboratory results as given in patent US8703805B2 (Exelixis Patent Company LLC, priority 2005, dated 2014).

What follows are molecules tested on LXRα and/or LXRβ (assay: LXR/LXRE co-transfection assay (luciferase reporter, CV-1 cells)). Details: IC50 or EC50 for LXR (LXRα and/or LXRβ, not distinguished), tested as described in Example 109, CV-1 cells.
Assay type: cell-based, human
Method in brief: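 Transient co-transfection of CV-1 cells with full-length human LXRα or LXRβ plus RXRα expression plasmids and an LXREx1-Tk-luciferase reporter; compounds (10 μM screen, ≤1% DMSO) incubated 20 h at 37 °C. Luminescence read after lysis; EC50/IC50 from 8-point half-log curves, efficacy relative to a high control or DMSO.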

EC50 [nM] | SMILES
< 1000 | Cc1ccc(Cl)c(-n2nc(C(C)(C)O)cc2-c2ccc(-c3cccc(S(C)(=O)=O)c3)s2)c1Cl [Example 1325, 2-[1-(2,6-dichloro-3-methylphenyl)-5-{5-[3-(methylsulfonyl)phenyl]-2-thienyl}-1H-pyrazol-3-yl]propan-2-ol]
1000 to 10000 | CC(C)(O)c1cc(-c2cccc(F)c2F)n(-c2ccc(-c3cccc(S(C)(=O)=O)c3)cc2F)n1 [Example 121, 2-(5-(2,3-difluorophenyl)-1-(3-fluoro-3′-(methylsulfonyl)biphenyl-4-yl)-1H-pyrazol-3-yl)propan-2-ol]
1000 to 10000 | CN(C)C1CCN(C(=O)c2cc(-c3ccc(-c4cccc(S(C)(=O)=O)c4)s3)n(-c3ccccc3Cl)n2)CC1 [Example 591, 1-{[1-(2-chlorophenyl)-5-{5-[3-(methylsulfonyl)phenyl]-2-thienyl}-1H-pyrazol-3-yl]carbonyl}-N,N-dimethylpiperidin-4-amine]
1000 to 10000 | COC(=O)c1cccc(-c2ccc(-c3cc(C(F)(F)F)nn3-c3ccccc3Cl)cc2)c1 [Example 1208, methyl 4′-[1-(2-chlorophenyl)-3-(trifluoromethyl)-1H-pyrazol-5-yl]biphenyl-3-carboxylate]
1000 to 10000 | CC(C)(O)c1cc(-c2ccc(-c3cccc(S(C)(=O)=O)c3)s2)n(-c2ccc(F)c(F)c2)n1 [Example 1267, 2-[1-(3,4-difluorophenyl)-5-{5-[3-(methylsulfonyl)phenyl]-2-thienyl}-1H-pyrazol-3-yl]propan-2-ol]
< 1000 | Cc1ccc(C)c(-n2nc(C(C)(C)O)cc2-c2ccc(-c3cccc(S(C)(=O)=O)c3)s2)c1 [Example 1314, 2-[1-(2,5-dimethylphenyl)-5-{5-[3-(methylsulfonyl)phenyl]-2-thienyl}-1H-pyrazol-3-yl]propan-2-ol]
< 1000 | CS(=O)(=O)c1cccc(-c2ccc(-n3nc(C(F)(F)F)cc3-c3ccccc3C(F)(F)F)nc2)c1 [Example 1231, 5-[3-(methylsulfonyl)phenyl]-2-{3-(trifluoromethyl)-5-[2-(trifluoromethyl)phenyl]-1H-pyrazol-1-yl}pyridine]
1000 to 10000 | CC(C)(O)c1cc(-c2ccc(-c3cccc(C(F)(F)F)c3)cc2)n(-c2ccccc2Cl)n1 [Example 1287, 2-{1-(2-chlorophenyl)-5-[3′-(trifluoromethyl)biphenyl-4-yl]-1H-pyrazol-3-yl}propan-2-ol]
1000 to 10000 | CN(CC(=O)O)C(=O)c1cc(-c2ccc(-c3cccc(S(C)(=O)=O)c3)s2)n(-c2ccccc2Cl)n1 [Example 1154, N-{[1-(2-chlorophenyl)-5-{5-[3-(methylsulfonyl)phenyl]-2-thienyl}-1H-pyrazol-3-yl]carbonyl}-N-methylglycine]
< 1000 | CC(C)(O)c1nn(-c2cccc(F)c2Cl)c(-c2ccc(-c3cccc(S(C)(=O)=O)c3)s2)c1Cl [Example 1371, 2-[4-chloro-1-(2-chloro-3-fluorophenyl)-5-{5-[3-(methylsulfonyl)phenyl]-2-thienyl}-1H-pyrazol-3-yl]propan-2-ol]
1000 to 10000 | CCN(CC)C(=O)COc1cccc(-c2ccc(-c3cc(C(C)(C)O)nn3-c3ccccc3Cl)cc2)c1 [Example 1298, 2-({4′-[1-(2-chlorophenyl)-3-(1-hydroxy-1-methylethyl)-1H-pyrazol-5-yl]biphenyl-3-yl}oxy)-N,N-diethylacetamide]
< 1000 | COC(=O)CN(C)C(=O)c1cc(-c2ccc(-c3cccc(S(C)(=O)=O)c3)s2)n(-c2ccccc2Cl)n1 [Example 589, methyl N-{[1-(2-chlorophenyl)-5-{5-[3-(methylsulfonyl)phenyl]-2-thienyl}-1H-pyrazol-3-yl]carbonyl}-N-methylglycinate]
< 1000 | CC(C)(O)c1cccc(-c2ccc(-c3cc(C(F)(F)F)nn3-c3ccccc3Cl)s2)c1 [Example 1240, 2-(3-{5-[1-(2-chlorophenyl)-3-(trifluoromethyl)-1H-pyrazol-5-yl]-2-thienyl}phenyl)propan-2-ol]
1000 to 10000 | CC(C)(O)c1cc(-c2ccc(-c3cccc(S(C)(=O)=O)c3)cc2Cl)n(-c2cnccc2C(F)(F)F)n1 [Example 117, 2-(5-(3-chloro-3′-(methylsulfonyl)biphenyl-4-yl)-1-(4-(trifluoromethyl)pyridin-3-yl)-1H-pyrazol-3-yl)propan-2-ol]
< 1000 | CC(C)(O)c1cc(-c2ccc(-c3cccc(S(C)(=O)=O)c3)cc2)n(Cc2cccc(Cl)c2Cl)n1 [Example 1400, 2-(1-(2,3-dichlorobenzyl)-5-(3′-(methylsulfonyl)biphenyl-4-yl)-1H-pyrazol-3-yl)propan-2-ol]
< 1000 | Cc1cc(-c2cccc(S(C)(=O)=O)c2)ccc1-c1cc(C(C)(C)O)nn1-c1c(Cl)cccc1Cl [Example 147, 2-(1-(2,6-dichlorophenyl)-5-(3-methyl-3′-(methylsulfonyl)biphenyl-4-yl)-1H-pyrazol-3-yl)propan-2-ol]
1000 to 10000 | CC(C)(N)c1cc(-c2ccc(-c3cccc(S(C)(=O)=O)c3)s2)n(-c2ccccc2Cl)n1 [Example 1151, 2-[1-(2-chlorophenyl)-5-{5-[3-(methylsulfonyl)phenyl]-2-thienyl}-1H-pyrazol-3-yl]propan-2-amine]
1000 to 10000 | O=C(NC1CCSC1=O)c1ccc(-c2cc(C(F)(F)F)nn2-c2ccccc2Cl)cc1 (stereo not drawn) [Example 1355, 4-[1-(2-chlorophenyl)-3-(trifluoromethyl)-1H-pyrazol-5-yl]-N-(2-oxotetrahydro-3-thienyl)benzamide]
< 1000 | Cc1cc(-c2cccc(S(C)(=O)=O)c2)ccc1-n1nc(C(C)(C)O)cc1-c1c(Cl)cccc1Cl [Example 122, 2-(5-(2,6-dichlorophenyl)-1-(3-methyl-3′-(methylsulfonyl)biphenyl-4-yl)-1H-pyrazol-3-yl)propan-2-ol]
< 1000 | CC(C)S(=O)(=O)c1cccc(-c2ccc(-c3cc(C(F)(F)F)nn3-c3ccccc3C(F)(F)F)cc2)c1 [Example 1168, 5-{3′-[(1-methylethyl)sulfonyl)biphenyl-4-yl}-3-(trifluoromethyl)-1-[2-(trifluoromethyl)phenyl]-1H-pyrazole]
< 1000 | CCC(O)CS(=O)(=O)c1cccc(-c2ccc(-c3cc(C(F)(F)F)nn3-c3cc(Cl)ccc3Cl)s2)c1 (stereo not drawn) [Example 1146, 1-[(3-{5-[1-(2,5-dichlorophenyl)-3-(trifluoromethyl)-1H-pyrazol-5-yl]-2-thienyl}phenyl)sulfonyl]butan-2-ol]
< 1000 | CC(C)(O)c1nn(-c2c(Cl)cccc2Cl)c(-c2ccc(-c3cccc(S(C)(=O)=O)c3)cc2Cl)c1Cl [Example 144, 2-(4-chloro-5-(3-chloro-3′-(methylsulfonyl)biphenyl-4-yl)-1-(2,6-dichlorophenyl)-1H-pyrazol-3-yl)propan-2-ol]
1000 to 10000 | CS(=O)(=O)c1cccc(-c2ccc(-c3cc(C(=O)NCCc4ccccn4)nn3-c3ccccc3Cl)s2)c1 [Example 1232, 1-(2-chlorophenyl)-5-{5-[3-(methylsulfonyl)phenyl]-2-thienyl}-N-(2-pyridin-2-ylethyl)-1H-pyrazole-3-carboxamide]
< 1000 | CC(C)(O)c1nn(-c2ccc(-c3cccc(S(C)(=O)=O)c3)cc2Cl)c(-c2cccc(F)c2F)c1Cl [Example 1427, 2-(4-chloro-1-(3-chloro-3′-(methylsulfonyl)biphenyl-4-yl)-5-(2,3-difluorophenyl)-1H-pyrazol-3-yl)propan-2-ol]
